Measurements from patent publication US20220168427A1 (Ranok Therapeutics (Hangzhou) Co. Ltd., priority 2019, published 2022).
pIC50: −log10 of the molar value. Counter-ions that a name gives are not always drawn.

Tests used:
BRD4 (BD1+BD2) = biological target: T1, BRD4 (BD1+BD2) (Homo sapiens, UniProt O60885); conditions: read-out: BRD4 Binding Potency
T1 construct: 1.8 μg/ml recombinant BRD4 (BD1+BD2 domains) protein
Procedure: A master mix was prepared with assay buffer, 1.8 μg/ml recombinant BRD4 (BD1+BD2 domains) protein, and 200-fold dilutions of Tb-labeled donor and dye-labeled acceptor. 40-fold dilutions of acetylated and non-acetylated ligands were prepared in 1×BRD TR-FRET assay buffer. Also, a serial 3-fold dilution of each compound was prepared ranging from 40 μM down until 2.0 nM. In a 384-well plate, 5 μl diluted ligand and 5 μl of compound dilution were added per well to duplicate wells and mixed by brief shaking. Then 10 μl of master mix was added per well, mixed by brief shaking, incubated at 25° C. for 2 hr and fluorescence was measured on an EnVision Plate Reader. The 665 nm/615 nm ratio was calculated from EnVision raw data. Data were normalized using whole-plate averages of “positive” and “negative” readings. A four-parameter “log[inhibitor] vs. response” curve was fitted using GraphPad Prism 7.0.

HSP90α = HSP90α (Homo sapiens, UniProt P07900); assay: HSP90α Binding Fluorescent Polarization (FP) Assay; conditions: competition with FITC-geldanamycin; read-out: HSP90 Binding Potency
Procedure: HSP90α Binding Fluorescent Polarization (FP) Assay
A master mix was prepared with assay buffer, BSA and FITC-geldanamycin. In a 96-well plate, a serial 3-fold dilution of each compound was prepared ranging from 40 μM down until 2.0 nM. Also in a 96-well plate, recombinant HSP90α protein was diluted to 28 μg/ml. Then, in a 384-well plate, 10 μl of master mix and 5 μl of compound dilution were added per well to duplicate wells and mixed by brief shaking. Then 5 μl of diluted HSP90α protein was added per well, mixed by brief shaking, incubated at 25° C. for 30, 60 and 120 min and fluorescence was measured on an EnVision Plate Reader. Background-subtracted mP values were calculated from EnVision raw data and a four-parameter “log[inhibitor] vs. response” curve was fitted using GraphPad Prism 7.0.

MV4-11 cells = assay: MV4-11 Cell Cytotoxicity Assay; assay type: cell-based, human; conditions: human, MV4-11 cells, CCK-8
Source text: % Inhibition=100−(D−B)/(S−B)*100%.
S: The absorbance of the maximum (cells with DMSO)
B: The absorbance of the minimum (medium with DMSO)

SMILES	pIC50 (BRD4 (BD1+BD2))	pIC50 (HSP90α)	IC50 at 72 h (MV4-11 cells) [nM]
CCc1cc(C(=O)N2Cc3ccc(CN4CCN(C(=O)C[C@@H]5N=C(c6ccc(Cl)cc6)c6c(sc(C)c6C)-n6c(C)nnc65)CC4)cc3C2)c(O)cc1O [Compound 142, (S)-2-(4-(4-chlorophenyl)-2,3,9-trimethyl-6H-thieno[3,2-f][1,2,4]triazolo[4,3-a][1,4]diazepin-6-yl)-1-(4-((2-(5-ethyl-2,4-dihydroxybenzoyl)isoindolin-5-yl)methyl)piperazin-1-yl)ethan-1-one]	6.00 to 7.00	6.00 to 7.00	100 to 1000
Cc1sc2c(c1C)C(c1ccc(Cl)cc1)=N[C@@H](CC(=O)NCCOCCOCCOc1ccc(-n3c(S)nnc3-c3cc(C(C)C)c(O)cc3O)cc1)c1nnc(C)n1-2 [Compound 34, (S)-2-(4-(4-chlorophenyl)-2,3,9-trimethyl-6H-thieno[3,2-f][1,2,4]triazolo[4,3-a][1,4]diazepin-6-yl)-N-(2-(2-(2-(4-(3-(2,4-dihydroxy-5-isopropylphenyl)-5-mercapto-4H-1,2,4-triazol-4-yl)phenoxy)ethoxy)ethoxy)ethyl)acetamide]	< 6.00	< 6.00	100 to 1000
Cc1sc2c(c1C)C(c1ccc(Cl)cc1)=N[C@@H](CC(=O)NCCc1ccc(CN3CCC(Cc4ccc(-n5c(C(=O)NCC(F)(F)F)nnc5-c5cc(C(C)C)c(O)cc5O)cc4)CC3)cc1)c1nnc(C)n1-2 [Compound 95, (S)-4-(4-((1-(4-(2-(2-(4-(4-chlorophenyl)-2,3,9-trimethyl-6H-thieno[3,2-f][1,2,4]triazolo[4,3-a][1,4]diazepin-6-yl)acetamido)ethyl)benzyl)piperidin-4-yl)methyl)phenyl)-5-(2,4-dihydroxy-5-isopropylphenyl)-N-(2,2,2-trifluoroethyl)-4H-1,2,4-triazole-3-carboxamide, trifluoroacetic acid]	6.00 to 7.00	6.00 to 7.00	< 100
CCc1cc(-c2nnc(O)n2-c2ccc(CN3CCN(CC4CCN(CC[C@@H]5N=C(c6ccc(Cl)cc6)c6c(sc(C)c6C)-n6c(C)nnc65)CC4)CC3)cc2)c(O)cc1O [Compound 2, 4-(4-(4-((4-((1-(2-((6S)-4-(4-chlorophenyl)-2,3,9-trimethyl-6H-thieno[3,2-f][1,2,4]triazolo[4,3-a][1,4]diazepin-6-yl)ethyl)piperidin-4-yl)methyl)piperazin-1-yl)methyl)phenyl)-5-hydroxy-4H-1,2,4-triazol-3-yl)-6-ethylbenzene-1,3-diol, trifluoroacetic acid]	< 6.00	> 7.00	100 to 1000
CC[C@@H](C)Nc1cc(C(=O)NC2C[C@H]3CC[C@H](C2)N3c2ccc(C(=O)Nc3ccc(CN4CCN(CC5CCN(C(=O)C[C@@H]6N=C(c7ccc(Cl)cc7)c7c(sc(C)c7C)-n7c(C)nnc76)CC5)CC4)cc3)cn2)c(C)cc1C(N)=O (stereo partly drawn) [Compound 26, 5-((R)-sec-butylamino)-N1-((1R,5R)-8-(5-((4-((4-((1-(2-((6S)-4-(4-chlorophenyl)-2,3,9-trimethyl-6H-thieno[3,2-f][1,2,4]triazolo[4,3-a][1,4]diazepin-6-yl)acetyl)piperidin-4-yl)methyl)piperazin-1-yl)methyl)phenyl)carbamoyl)pyridin-2-yl)-8-azabicyclo[3.2.1]octan-3-yl)-2-methylterephthalamide, formic acid]	6.00 to 7.00	< 6.00	< 100
CCNC(=O)c1noc(-c2cc(C(C)C)c(O)cc2O)c1-c1ccc(CN2CCN(CC3CCN(C(=O)C[C@@H]4N=C(c5ccc(Cl)cc5)c5c(sc(C)c5C)-n5c(C)nnc54)CC3)CC2)cc1 [Compound 126, (S)-4-(4-((4-((1-(2-(4-(4-chlorophenyl)-2,3,9-trimethyl-6H-thieno[3,2-f][1,2,4]triazolo[4,3-a][1,4]diazepin-6-yl)acetyl)piperidin-4-yl)methyl)piperazin-1-yl)methyl)phenyl)-5-(2,4-dihydroxy-5-isopropylphenyl)-N-ethylisoxazole-3-carboxamide hydrochloride]	6.00 to 7.00	6.00 to 7.00	< 100
Cc1sc2c(c1C)C(c1ccc(Cl)cc1)=N[C@@H](CC(=O)NCCOCCN1CCC(Cc3ccc(-n4c(O)nnc4-c4cc(C(C)C)c(O)cc4O)cc3)CC1)c1nnc(C)n1-2 [Compound 37, 2-((6S)-4-(4-chlorophenyl)-2,3,9-trimethyl-6H-thieno[3,2-f][1,2,4]triazolo[4,3-a][1,4]diazepin-6-yl)-N-(2-(2-(4-(4-(3-(2,4-dihydroxy-5-isopropylphenyl)-5-hydroxy-4H-1,2,4-triazol-4-yl)benzyl)piperidin-1-yl)ethoxy)ethyl)acetamide, trifluoroacetic acid]	> 7.00	> 7.00	100 to 1000
Cc1sc2c(c1C)C(c1ccc(Cl)cc1)=N[C@@H](CC(=O)N1CCN(C(=O)C3CCN(c4ccc(-n5c(O)nnc5-c5cc(C(C)C)c(O)cc5O)cc4)CC3)CC1)c1nnc(C)n1-2 [Compound 29, (S)-2-(4-(4-chlorophenyl)-2,3,9-trimethyl-6H-thieno[3,2-f][1,2,4]triazolo[4,3-a][1,4]diazepin-6-yl)-1-(4-(1-(4-(3-(2,4-dihydroxy-5-isopropylphenyl)-5-hydroxy-4H-1,2,4-triazol-4-yl)phenyl)piperidine-4-carbonyl)piperazin-1-yl)ethan-1-one]	< 6.00	< 6.00	100 to 1000
CCc1cc(-c2nnc(O)n2-c2ccc(CN3CCC(C(=O)N4CCC(CNCC[C@@H]5N=C(c6ccc(Cl)cc6)c6c(sc(C)c6C)-n6c(C)nnc65)CC4)CC3)cc2)c(O)cc1O [Compound 68, (4-(((2-((6S)-4-(4-chlorophenyl)-2,3,9-trimethyl-6H-thieno[3,2-f][1,2,4]triazolo[4,3-a][1,4]diazepin-6-yl)ethyl)amino)methyl)piperidin-1-yl)(1-(4-(3-(5-ethyl-2,4-dihydroxyphenyl)-5-hydroxy-4H-1,2,4-triazol-4-yl)benzyl)piperidin-4-yl)methanone, trifluoroacetic acid]	6.00 to 7.00	6.00 to 7.00	100 to 1000
CCc1cc(-c2nnc(O)n2-c2ccc(CN3CCN(CC4CCN(C(=O)C[C@@H]5N=C(c6ccc(Cl)cc6)c6c(sc(C)c6C)-n6c(C)nnc65)CC4)CC3)cc2)c(O)cc1O [Compound 10, (S)-2-(4-(4-chlorophenyl)-2,3,9-trimethyl-6H-thieno[3,2-f][1,2,4]triazolo[4,3-a][1,4]diazepin-6-yl)-1-(4-((4-(4-(3-(5-ethyl-2,4-dihydroxyphenyl)-5-hydroxy-4H-1,2,4-triazol-4-yl)benzyl)piperazin-1-yl)methyl)piperidin-1-yl)ethan-1-one hydrochloride]	6.00 to 7.00	6.00 to 7.00	< 100
CCNC(=O)c1nnc(-c2cc(CC)c(O)cc2O)n1-c1ccc(CC2CCN(CC3CCN(C(=O)C[C@@H]4N=C(c5ccc(Cl)cc5)c5c(sc(C)c5C)-n5c(C)nnc54)CC3)CC2)cc1 [Compound 87, (S)-4-(4-((1-((1-(2-(4-(4-chlorophenyl)-2,3,9-trimethyl-6H-thieno[3,2-f][1,2,4]triazolo[4,3-a][1,4]diazepin-6-yl)acetyl)piperidin-4-yl)methyl)piperidin-4-yl)methyl)phenyl)-N-ethyl-5-(5-ethyl-2,4-dihydroxyphenyl)-1H-1,2,414-triazole-3-carboxamide, trifluoroacetic acid]	6.00 to 7.00	6.00 to 7.00	< 100
